The subject of one data set is Klebsiella pneumoniae. The settings on record: K. pneumoniae, sensitive.
Data set [1] deals with twenty biofilm-forming A. baumannii strains. Description: Inhibition of biofilm formation (crystal violet). The settings on record: for average percent inhibition of biofilm formation: twenty A. baumannii strains, peptide at MIC (312.5, 156.25, 156.25 µg/mL), 24 h, crystal violet OD595. Further details: Percent biofilm forming inhibition: concentration or dose not given beside the values. It is filed as cell-based, Acinetobacter baumannii. How it is done:
We determined the ability of peptides to inhibit biofilm formation in twenty biofilm-forming strains using the method described by [Karyne et al. (2020)] with some modifications. Briefly, biofilm-forming strains of A. baumannii were adjusted to an equivalent of the 0.5 McFarland standard in 2× Luria Bertani (LB) broth supplemented with 20% glucose. Then, 50 µL of A. baumannii and 50 µL of peptides were added. […] The plates were incubated overnight at 37 °C. After 24 h of incubation, the culture medium was gently removed, and the wells were washed three times with phosphate-buffered saline. The adherent cells were fixed with absolute methanol for 10 min, stained with 0.4% crystal violet for 15 min, and washed three times with sterile distilled water, then air-dried. The plates were then filled with 250 µL of 33% acetic acid for 15 min. The absorbance at OD595 nm was determined. All experiments were performed in three independent assays, each repeated in triplicate, and the percentage of biofilm reduction was calculated based on treated wells vs. non-treated wells.

The test system of the next data set is Pseudomonas aeruginosa. Particulars: P. aeruginosa, sensitive.
The next data set concerns Escherichia coli. Particulars: E. coli, sensitive.
Data set [2] deals with A. baumannii ATCC19606. The settings on record: for MIC alone: ATCC19606, checkerboard, agent alone.
For data set [3], the system named is A. baumannii ATCC19606. Particulars: for Minimum Inhibitory Concentration (MIC): A. baumannii 19606, sensitive; for MIC values of outer membrane permeabilizers and colistin: A. baumannii 19606.
A further data set relates to HepG2 cell line. Description: MTT cell viability assay. Type of data set: cell-based, human. More on the design: key to Mean cell viability (Mean 2; control = 100): % viability relative to control (control = 100%). The settings on record: for IC50 (reduction of viable cells to 50%): 24 h, three independent experiments; for Mean cell viability (Mean 2; control = 100): mean of n = 3. The protocol: We aimed to determine the effects of peptides on cell viability and proliferation in the human hepatocellular carcinoma HepG2 cell line. The MTT assay was performed as described by [Muangpat et al. (2022)] with some modifications. The cells were cultured in Dulbecco’s Modified Eagle Medium (DMEM; Sigma-Aldrich, St. Louis, MO, USA), supplemented with 10% fetal bovine serum (FBS), 100 U/ml penicillin, and 100 μg/ml streptomycin at 37 °C in 5% CO^2 and 95% humidity. The cells were seeded into a 96-well plate at a density of 1 × 10^4 cells/well and allowed to adhere overnight. Then, the cells were exposed for 24 h to various concentrations of peptides. The control cells were cultured in complete DMEM medium containing 0.2% DMSO. After the 24-h incubation period, 20 μL of MTT solution (5 mg/mL in PBS) (Tokyo Chemical Industry Co., Ltd., Tokyo, Japan) was added to each well and incubated for another 2 h at 37 °C. The culture medium was then removed, and formazan crystals formed by viable cells were dissolved in 100 μL of DMSO before measuring the absorbance at 590 nm using a microplate spectrophotometer. The effect of the peptide on cell viability was calculated as a percentage of the control, which was arbitrarily assigned a value of 100% viability. The percentage of cell viability was calculated relative to the control group. The IC₅₀ of the peptides was defined as the concentration that caused a 50% reduction in cell viability compared with the control. The MTT assay was conducted in three independent experiments, each with triplicate wells per condition.
For orientation: Formazan colour is commonly taken as a measure of viable cells.

The next data set concerns Staphylococcus aureus. Particulars: S. aureus, sensitive.
The test system of the next data set is Bacillus subtilis. The settings on record: B. subtilis, sensitive.
The mark [4] stands for this setting: A. baumannii 19,606, microdilution, MHB, 37 °C overnight, triplicate samples.
Where [5] appears, read: microdilution, triplicate samples.

In brackets after ≈: the same amount, converted by molar mass. Where two headings read alike, the source gives them in different places. Where a SMILES comes first, the peptide text is derived from it. Bridges are numbered along the chain shown (N, C = ends). Where no end group is shown, it is not given here. [ ]: non-standard residue; d: D form. The star is where a group is joined. X1 = CC[C@H](C)CCCCC(=O)*; Dab = NCC[C@H](N)C(=O)O

As for LIAIQIAIKGMLNGWFTGVGFRRKR [PE04-1], the “Minimum Inhibitory Concentration (MIC)” value with Klebsiella pneumoniae worked out at 2500 µg/mL; in the data set on Pseudomonas aeruginosa it was 2500 µg/mL; in the data set with Escherichia coli, 2500 µg/mL; with MDR-AB, XDR-AB (strain AB003, MDR-AB), 312.5 µg/mL; in the data set with MDR-AB, XDR-AB (strain AB183, XDR-AB), 156.25 µg/mL; in the data set on MDR-AB, XDR-AB (strain AB329, XDR-AB) it was 625 µg/mL. The “Minimum Inhibitory Concentration (MIC)” value in the data set on MDR-AB, XDR-AB (strain CR89, MDR-AB) came to 312.5 µg/mL; with A. baumannii ATCC19606 [3], 312.5 µg/mL; in the data set with Staphylococcus aureus, 39.06 µg/mL; in the data set on Bacillus subtilis it was 39.06 µg/mL. Moreover, the “Percent biofilm forming inhibition” value in data set [1] (strain AB23, MDR-AB / CR-AB, 2013) is given as 92.1075%; in data set [1] (strain CR65-47, MDR-AB / CR-AB, 2022), 61.4919%. Further, the “average percent inhibition of biofilm formation” value in data set [1] is 58.11%. Further, in the data set on A. baumannii ATCC19606 [2] (ATCC19606), the “FIC index, peptide plus colistin” value is reported as 0.19. The same compound yielded an MIC values with A. baumannii ATCC19606 [3] (setting [4]) of 312.5 µg/mL. Also, the “MIC (ATCC19606)” value in the data set on A. baumannii ATCC19606 [3] (A. baumannii ATCC19606) amounted to 312.5 µg/mL. Further, in the data set on HepG2 cell line, the “IC50 (reduction of viable cells to 50%)” value is recorded as 1,440 ug/ml.

With `CC[C@H](C)CCCCC(=O)N[C@@H](CCN)C(=O)N[C@H](C(=O)N[C@@H](CCN)C(=O)N[C@H]1CCNC(=O)[C@H]([C@@H](C)O)NC(=O)[C@H](CCN)NC(=O)[C@H](CCN)NC(=O)[C@H](CC(C)C)NC(=O)[C@@H](CC(C)C)NC(=O)[C@H](CCN)NC1=O)[C@@H](C)O` [Colistin] (X1-[Dab]T[Dab][Dab][Dab][dL]L[Dab][Dab]T; lactam 4-C (inferred); N-terminus assumed), the “Colistin Resistance MIC” value with MDR-AB, XDR-AB (strain AB57, XDR-AB / CR-AB) turned out to be 1 µg/mL; with MDR-AB, XDR-AB (strain AB59, XDR-AB / CR-AB), 0.5 µg/mL; with MDR-AB, XDR-AB (strain AB329, XDR-AB / CR-AB), 1 µg/mL; with MDR-AB, XDR-AB (strain CR65-40, MDR-AB / CR-AB), 8 µg/mL; in the data set on MDR-AB, XDR-AB (strain CR65-43, XDR-AB / CR-AB) it was 4 µg/mL; with MDR-AB, XDR-AB (strain CR65-47, MDR-AB / CR-AB) it was 2 µg/mL. Besides, the “Colistin Resistance MIC” value in the data set with MDR-AB, XDR-AB (strain CR65-51, XDR-AB / CR-AB) turned out to be 2 µg/mL; with MDR-AB, XDR-AB (strain CR65-55, MDR-AB / CR-AB), 2 µg/mL; with MDR-AB, XDR-AB (strain CR65-71, MDR-AB / CR-AB), 4 µg/mL; with MDR-AB, XDR-AB (strain CR65-74, XDR-AB / CR-AB), 2 µg/mL. Also, in the data set on A. baumannii ATCC19606 [2], the MIC alone was 2 µg/mL. In addition, in the data set on A. baumannii ATCC19606 [3] (setting [5]), the “MIC values of outer membrane permeabilizers and colistin” value is 2 µg/mL.

In the case of `CC[C@H](C)[C@H](NC(=O)[C@H](CCCNC(=N)N)NC(=O)[C@H](CC(N)=O)NC(=O)[C@@H](N)CCCCN)C(=O)N[C@H](C(=O)NCC(=O)N1CCC[C@H]1C(=O)N[C@H](C(=O)N[C@@H](Cc1ccc(O)cc1)C(=O)N[C@@H](C)C(=O)N[C@@H](CCCCN)C(=O)N[C@@H](CS)C(=O)N[C@@H](CC(N)=O)C(=O)N[C@@H](CCCNC(=N)N)C(=O)N[C@@H](CO)C(=O)N[C@@H](CCCNC(=N)N)C(=O)N[C@@H](CCC(N)=O)C(=O)N[C@@H](CCSC)C(=O)N[C@@H](C)C(=O)N[C@@H](CC(C)C)C(=O)N[C@@H](CCC(=O)O)C(=O)N[C@@H](CC(N)=O)C(=O)N[C@@H](CCSC)C(=O)N[C@@H](C)C(=O)N[C@@H](Cc1ccccc1)C(=O)O)C(C)C)[C@@H](C)CC` [PTL02], the MIC values in the data set on A. baumannii ATCC19606 [3] (setting [4]) is on record as 5,000 ug/ml. The “MIC (ATCC19606)” value against A. baumannii ATCC19606 [3] (A. baumannii ATCC19606) amounted to 5000 µg/mL (≈ 1720 µM).

Regarding KIAIQIAIKGMLNGWFTGVGFRRKR [PE04-2], the “Minimum Inhibitory Concentration (MIC)” value is 312.5 µg/mL with Klebsiella pneumoniae; 312.5 µg/mL in the data set with Pseudomonas aeruginosa; 156.25 µg/mL with Escherichia coli; 78.12 µg/mL in the data set on MDR-AB, XDR-AB (strain AB003, MDR-AB); 78.12 µg/mL with MDR-AB, XDR-AB (strain AB183, XDR-AB); 156.25 µg/mL in the data set with MDR-AB, XDR-AB (strain AB329, XDR-AB). In addition, the “Minimum Inhibitory Concentration (MIC)” value was determined as 156.25 µg/mL in the data set with MDR-AB, XDR-AB (strain CR89, MDR-AB); 156.25 µg/mL in the data set on A. baumannii ATCC19606 [3]; 39.06 µg/mL in the data set on Staphylococcus aureus; 39.06 µg/mL with Bacillus subtilis. Also, the “Percent biofilm forming inhibition” value is recorded as 92.3659% in data set [1] (strain AB57, XDR-AB / CR-AB, 2013) and 88.4382% in [1] (strain AB263, MDR-AB, 2014). In [1], the “average percent inhibition of biofilm formation” value worked out at 91.92%. In addition, in the data set with A. baumannii ATCC19606 [2] (ATCC19606), the “FIC index, peptide plus colistin” value was 0.14. Also, in the data set on A. baumannii ATCC19606 [2] (ATCC19606), the FICI amounted to 0.25. The same compound gave an MIC values against A. baumannii ATCC19606 [3] (setting [4]) of 156.25 µg/mL. Besides, the “MIC (ATCC19606)” value in the data set with A. baumannii ATCC19606 [3] (A. baumannii ATCC19606) worked out at 156.25 µg/mL. Further, the “IC50 (reduction of viable cells to 50%)” value in the data set on HepG2 cell line is 424.1 µg/mL. For the same compound, the “Mean cell viability (Mean 2; control = 100)” value was 90.16 with HepG2 cell line (peptide concentration 25 (unit not given)); 91.63 in the data set on HepG2 cell line (peptide concentration 50 (unit not given)); 79.64 in the data set with HepG2 cell line (peptide concentration 156.25 (unit not given)); 71.67 with HepG2 cell line (peptide concentration 300 (unit not given)); 32.89 in the data set with HepG2 cell line (peptide concentration 600 (unit not given)); 14.6 with HepG2 cell line (peptide concentration 800 (unit not given)).

In the case of ENMRNRKWNSTDTVMRRSRFQRYLR [PTTPAT04], in the data set on A. baumannii ATCC19606 [3] (setting [4]), the MIC values is 2,500 ug/ml. The “MIC (ATCC19606)” value in the data set on A. baumannii ATCC19606 [3] (A. baumannii ATCC19606) was found to be 2500 µg/mL.

“LIAIQIAIKGMLNGWFTGVGFRRKR-NH2 [PE04-1-NH2]”: the MIC alone in the data set on A. baumannii ATCC19606 [2] worked out at 156.25 µg/mL.

Consider LNSKDYAGAAAQFLVWNKGRVKGKL [PE02-1], for which, in the data set on A. baumannii ATCC19606 [3] (ATCC19606), the “MIC (ATCC19606)” value is more than 2500 µg/mL and the MIC values is >2,500 ug/ml.

On to EYRSSWTGAYGASVLNKYIGMGRNS [PSTF02], for which, in the data set on A. baumannii ATCC19606 [3] (ATCC19606), the “MIC (ATCC19606)” value is more than 5000 µg/mL and the MIC values is on record as >5,000 ug/ml.

In the case of KRQTLADKKERKKFHDGLMLNDNIR [PIN02], in the data set with A. baumannii ATCC19606 [3] (ATCC19606), the “MIC (ATCC19606)” value is more than 5000 µg/mL and the MIC values is >5,000 ug/ml.

Take WNKGRVKGKLEVIPGLTNRRKKEKA [PE02-2]: in the data set with A. baumannii ATCC19606 [3] (ATCC19606), the “MIC (ATCC19606)” value worked out at 1250 µg/mL and the MIC values is given as 1,250 ug/ml.

As for `O=C(O)CC(O)C(=O)O` (racemic) [DL-Malic acid, reference compound], the “MIC values of outer membrane permeabilizers and colistin” value with A. baumannii ATCC19606 [3] (setting [5]) was determined as 2500 µg/mL.

These data come from paper PMC11674141, “Antimicrobial activity and synergistic effect of phage-encoded antimicrobial peptides with colistin and outer membrane permeabilizing agents against Acinetobacter baumannii” (PeerJ, 2024).
